Assay results published in PMC12423841 (ACS Omega, 2025).

Columns and labels:
protein S (S:D614G) = protein S (S:D614G) (Severe acute respiratory syndrome coronavirus 2, UniProt P0DTC2, D614G); design: species or system SARS-CoV-2
[1] = target: RBDWuhan (SARS-CoV-2 spike RBD, Wuhan-Hu-1 variant) (Severe acute respiratory syndrome coronavirus 2, UniProt P0DTC2); type: binding; conditions: read-out: K D values RBDWuhan
[2] = target: RBDBA.1 (SARS-CoV-2 spike RBD, Omicron BA.1 variant) (Severe acute respiratory syndrome coronavirus 2, UniProt P0DTC2, E484A/G339D/G446S/G496S/K417N/N440K/N501Y/Q493R/Q498R/S371L/S373P/S375F/S477N/T478K/Y505H); type: binding; conditions: read-out: K D values RBDBA.1
[3] = target: SBA.1 (SARS-CoV-2 S protein, Omicron BA.1 variant) (Severe acute respiratory syndrome coronavirus 2, UniProt P0DTC2, A67V/D614G/D796Y/DEL143-145/DEL211-211/DEL69-70/E484A/G142D/G339D/G446S/G496S/H655Y/INS214EPE/K417N/L212I/L981F/N440K/N501Y/N679K/N764K/N856K/N969K/P681H/Q493R/Q498R/Q954H/S371L/S373P/S375F/S477N/T478K/T547K/T95I/Y505H, form not given); type: binding; conditions: read-out: K D values SBA.1
[4] = target: SWuhan (SARS-CoV-2 S protein HexaPro, Wuhan-Hu-1 variant) (Severe acute respiratory syndrome coronavirus 2, UniProt P0DTC2, A892P/A899P/A942P/F817P/K986P/V987P); type: binding; conditions: read-out: K D values SWuhan

Row | Molecule | architecture of spikes by negative-stain electron microscopy (protein S (S:D614G)) | Kd [1] [µM] | Kd [2] [µM] | Kd [3] [µM] | Kd [4] [µM]
1 | CCCCCCCCc1ccc(CCC(N)(CO)CO)cc1 [fingolimod] | do not damage the architecture of the proteins | – | – | – | –
2 | catechin | – | > 1000 | > 1000 | > 1000 | 927 ± 76
